Measured values taken from paper PMC12348844, “Anti-Trypanosoma cruzi Potential of New Pyrazole-Imidazoline Derivatives” (Molecules, 2025).
Read-outs that look alike come from different tables or passages of the source.

Columns and labels:
[1] = tested on: T. cruzi Dm28c-Luc intracellular amastigotes; experiment: Anti-T. cruzi in vitro assay, intracellular amastigotes in Vero cells (luminescence); assay type: cell-based, Trypanosoma cruzi; details: for IC50: Vero
Procedure: The genetically modified Trypanosoma cruzi, clone Dm28c (TcI), expressing luciferase (Dm28c-Luc), was kindly provided by Dr. Cristina Henriques from Oswaldo Cruz Institute—Fiocruz. The parasites were maintained using Vero cell cultures in RPMI 1640 medium enriched with 10% FBS. At 4 days post-infection (dpi), the trypomastigotes released into the culture supernatant were harvested, subjected to centrifugation at 800× g for 20 min at 4 °C, and quantified with a Neubauer chamber. The isolated trypomastigotes were subsequently used for phenotypic screening, drug efficacy assessments employing a 3D cardiac model, washout experiments to evaluate reversibility, drug combination studies, and enzymatic assays.
To evaluate the effect of pyrazole-imidazoline derivatives against intracellular amastigotes, Vero cells (1.5 × 10^4 cells/well) were cultured in a white 96-well plate with a clear bottom and subsequently infected with T. cruzi Dm28c-Luc at a 10:1 parasite-to-host cell ratio for 24 h. […] Parasite viability was measured by luminescence following the addition of luciferin (300 µg/mL). Background measurements (non-infected cultures incubated with luciferin, as well as luciferin-only controls) were performed to ensure the signal specifically originates from viable parasites. The IC50 and IC90 values, denoting the concentrations that achieve 50% and 90% reductions in viable parasites, respectively, were calculated using GraphPad Prism 8.2.1 software. Additionally, the selectivity index (SI) was calculated as the cytotoxic concentration (CC50) ratio in mammalian cells to the IC50 against T. cruzi, providing insight into the therapeutic window. Potency against intracellular amastigotes was evaluated using the formula 6—Log10 (IC50).

[2] = tested on: intracellular amastigotes of T. cruzi; experiment: Drug combination with Bz, fixed-ratio isobologram, intracellular amastigotes; assay type: cell-based; details: Trypanosoma cruzi; proportion 1k:Bz 5:0, 72 h; read-out: IC50 (Mean ± DP) in combination assay
Procedure: The isobologram approach assessed the interaction between Bz and the promising candidate in intracellular amastigotes of T. cruzi. Vero cell cultures infected with T. cruzi (Dm28c-Luc) were treated for 72 h with various concentrations of combinations of Bz and the promising candidate, specifically at ratios of 5:0; 4:1; 3:2; 2:3; 1:4 and 0:5. The maximum concentration of each compound was established based on their IC50 values, ensuring both reached the fourth dilution in the serial dilution setup (1:3), culminating in a total of seven dilutions. After 72 h of treatment, parasite viability was measured by luminescence in a Glomax Multi-Detection plate reader (Promega Corporation, Madison, WI, USA) after incubation with luciferin. The IC50 values of each treatment combination were calculated individually, and the fractional inhibitory concentration index (FICI) was derived using the formula FICI = IC50 of the combination/IC50 of the compound alone. The overall FICI (ΣFICI) was calculated by summing the FICIs for both compounds in each combination group, while the average ΣFICI (xΣFICI) represented the overall mean across all combination groups. The xΣFICI values were then employed to classify the interaction as synergistic (xΣFICI ≤ 0.5), additive (0.5 < xΣFICI < 4), or antagonistic (xΣFICI > 4). […]

[3] = tested on: T. cruzi cysteine protease; experiment: Cysteine protease activity in trypomastigote protein extract (Z-Phe-Arg-AMC); assay type: biochemical, Trypanosoma cruzi; details: 90 min, 37 °C, 33.3, 100 and 300 µM tested
Procedure: Total proteins from T. cruzi Dm28c-Luc were extracted using a lysis buffer [100 mM Tris-HCl pH 8.0, 150 mM NaCl, 10% glycerol, 0.5% Triton X-100]. The protein concentration was quantified using the Bradford assay, with bovine serum albumin (BSA) used to establish the standard curve. For the assessment of cysteine protease activity, 5 μg of the protein extract was incubated in an acetate buffer [10 mM sodium acetate, pH 5.0], supplemented with 1 mM dithiothreitol (DTT) in a final volume of 100 μL. The reaction used a fluorogenic peptide substrate, N-benzoyloxycarbonyl-L-phenylalanyl-L-arginine 7-amino-4-methylcoumarin (Z-FR-AMC), at a concentration of 60 μM. Incubation was conducted at 37 °C for 90 min, with relative fluorescence changes measured using a SpectraMax M2e spectrophotometer (Molecular Devices, Sunnyvale, CA, USA). Inhibition assays were performed using three concentrations (33.3, 100, and 300 µM) of the promising candidate and trans-epoxysuccinyl-L-leucylamido(4-guanidino)butane (E-64), each analyzed separately. A control was included using a low DMSO concentration (≤1%). Enzymatic activity was expressed in µmol/min/mg of protein, with residual activity presented as a percentage.

SMILES: FC(F)(F)c1ccc(-n2cc(C3=NCCN3)cn2)cc1 [1k, 1-(4-trifluoromethylphenyl)-4-(4,5-dihydro-1H-imidazol-2-yl)-1H-pyrazole]
- SI (selectivity index = CC50/IC50) ([1]; CC50 Vero cells / IC50 intracellular amastigotes): 73.9
- IC50 ([1]; Trypanosoma cruzi, 72 h, Dm28c-Luc in Vero cells, mean ± SD, read-out: Intracellular Amastigotes IC50): 3.3 ± 0.2 µM
- IC50 ([1]; Trypanosoma cruzi, intracellular amastigotes, 6 − Log10(IC50), read-out: pIC50 (potency) (converted)): 3.98 µM
- IC90 ([1]; Trypanosoma cruzi, 72 h, Dm28c-Luc in Vero cells, mean ± SD): 28.1 ± 0.4 µM
- enhancement in anti-T. cruzi activity relative to the hit compound ([1]; hit compound = 5-amino-pyrazole-imidazoline): 5 fold
- IC50 [2]: 3.75 ± 0.35 µM
- inhibition of cysteine protease activity [3]: 3.76%
